# Experimental data reported in patent US6811790B1, “Storage stable pesticide formulations containing azadirachtin” (E.I.D. Parry (India) Ltd., priority 2000, dated 2004).
# Where two headings read alike, the source gives them in different places.
# Legend:
# [1] = Stability of azadirachtin A in a formulation, accelerated storage test and real time conditions; type: physicochemical
# Procedure: The behavior of azadirachtin in real time and in accelerated conditions (especially at 54° C.) is quite different.
# [2] = 25 days at 29+/−1° C., cited from earlier work
structure (smiles),measurement,setting,value
C/C=C(\C)C(=O)O[C@H]1C[C@@H](OC(C)=O)[C@@]2(C(=O)OC)CO[C@H]3[C@@H](O)[C@@](C)([C@]45O[C@@]4(C)[C@@H]4C[C@H]5O[C@@H]5OC=C[C@@]54O)[C@H]4[C@]1(CO[C@]4(O)C(=O)OC)[C@@H]32 [azadirachtin A],degradation of azadirachtin A,"[1]; accelerated storage test at 54° C., after 14 days",66%
same,degradation of azadirachtin A per month,[1]; real time conditions at 20° C.,approximately 0.9 % per month
same,total degradation of azadirachtin A per year,[1]; real time conditions at 20° C.,11 % per year
same,degradation of azadirachtin A,[2]; in ethanol and water,about 80%
same,degradation of azadirachtin A,[2]; in methanol and acetone,50%
same,degradation of azadirachtin A,"[2]; in methylene chloride, carbon tetrachloride and chloroform",75-80%
